Test system: human fibrosarcoma HT1080 cells
Assay type: cell-based

| Structure (SMILES) | protection of HT1080 cells against WT-PA plus FP59 |
| --- | --- |
| CNC(=O)[C@@H](NC(=O)[C@H](CC(C)C)[C@H](O)C(=O)NO)C(C)(C)C [BB-2516, Marimastat] | did not protect |
| CNC(=O)[C@H](Cc1c[nH]c2ccccc12)NC(=O)[C@@H](CC(=O)NO)CC(C)C [GM6001] | did not protect |

— patent publication US9403872B2 (priority 1999, dated 2016)
